What all share (format): functional
For test [1], the system named is Mycobacterium tuberculosis. As to the kind of experiment: Antimycobacterial activity against Mycobacterium tuberculosis H37Rv ATCC 27294 by MABA method.
Test [2] deals with Klebsiella pneumoniae. As to the kind of experiment: Antibacterial activity against Klebsiella pneumoniae 12-2 after 18 to 24 hrs by standard twofold serial dilution method.
For test [3], the system named is Escherichia coli. As to the kind of experiment: Antibacterial activity against Escherichia coli ATCC 25922 after 18 to 24 hrs by standard twofold serial dilution method.
Test [4] deals with Escherichia coli. As to the kind of experiment: Antibacterial activity against extended-spectrum beta-lactamase producing Escherichia coli 12-2 after 18 to 24 hrs by standard twofold serial dilution method.
Test [5] relates to Staphylococcus epidermidis. As to the kind of experiment: Antibacterial activity against methicillin-sensitive Staphylococcus epidermidis 12-1 after 18 to 24 hrs by standard twofold serial dilution method.
Test [6] relates to Staphylococcus aureus. As to the kind of experiment: Antibacterial activity against methicillin-resistant Staphylococcus aureus 12-4 after 18 to 24 hrs by standard twofold serial dilution method.
In test [7] the test system is Klebsiella pneumoniae. As to the kind of experiment: Antibacterial activity against Klebsiella pneumoniae 12-4 after 18 to 24 hrs by standard twofold serial dilution method.
Test [8] relates to Staphylococcus epidermidis. As to the kind of experiment: Antibacterial activity against methicillin-sensitive Staphylococcus epidermidis 12-6 after 18 to 24 hrs by standard twofold serial dilution method.
Test [9] concerns Staphylococcus aureus. As to the kind of experiment: Antibacterial activity against methicillin-sensitive Staphylococcus aureus 12-5 after 18 to 24 hrs by standard twofold serial dilution method.
The subject of test [10] is Staphylococcus aureus. As to the kind of experiment: Antibacterial activity against methicillin-sensitive Staphylococcus aureus 12-4 after 18 to 24 hrs by standard twofold serial dilution method.
Test [11] has as its system Streptococcus pneumoniae. As to the kind of experiment: Antibacterial activity against Streptococcus pneumoniae ATCC 49619 after 18 to 24 hrs by standard twofold serial dilution method.
Test [12] relates to Staphylococcus epidermidis. As to the kind of experiment: Antibacterial activity against methicillin-sensitive Staphylococcus epidermidis 12-8 after 18 to 24 hrs by standard twofold serial dilution method.
Test [13] relates to Klebsiella pneumoniae. As to the kind of experiment: Antibacterial activity against Klebsiella pneumoniae 12-1 after 18 to 24 hrs by standard twofold serial dilution method.
Test [14] has as its system Staphylococcus aureus. As to the kind of experiment: Antibacterial activity against methicillin-resistant Staphylococcus aureus 12-2 after 18 to 24 hrs by standard twofold serial dilution method.
The test system of test [15] is Staphylococcus epidermidis. As to the kind of experiment: Antibacterial activity against methicillin-resistant Staphylococcus epidermidis 12-1 after 18 to 24 hrs by standard twofold serial dilution method.
The subject of test [16] is Staphylococcus aureus. As to the kind of experiment: Antibacterial activity against methicillin-sensitive Staphylococcus aureus 12-1 after 18 to 24 hrs by standard twofold serial dilution method.
The subject of test [17] is Staphylococcus epidermidis. As to the kind of experiment: Antibacterial activity against methicillin-resistant Staphylococcus epidermidis 12-6 after 18 to 24 hrs by standard twofold serial dilution method.
The subject of test [18] is Escherichia coli. As to the kind of experiment: Antibacterial activity against Escherichia coli 12-1 after 18 to 24 hrs by standard twofold serial dilution method.
For test [19], the system named is Staphylococcus aureus. As to the kind of experiment: Antibacterial activity against Staphylococcus aureus ATCC 25923 after 18 to 24 hrs by standard twofold serial dilution method.
Test [20] deals with Klebsiella pneumoniae. As to the kind of experiment: Antibacterial activity against extended-spectrum beta-lactamase producin Klebsiella pneumoniae 12-14 after 18 to 24 hrs by standard twofold serial dilution method.
Test [21] has as its system Staphylococcus aureus. As to the kind of experiment: Antibacterial activity against methicillin-resistant Staphylococcus aureus 12-5 after 18 to 24 hrs by standard twofold serial dilution method.
The test system of test [22] is Staphylococcus epidermidis. As to the kind of experiment: Antibacterial activity against methicillin-sensitive Staphylococcus epidermidis 12-3 after 18 to 24 hrs by standard twofold serial dilution method.
For test [23], the system named is Klebsiella pneumoniae. As to the kind of experiment: Antibacterial activity against extended-spectrum beta-lactamase producin Klebsiella pneumoniae 12-4 after 18 to 24 hrs by standard twofold serial dilution method.
Test [24] relates to Klebsiella pneumoniae. As to the kind of experiment: Antibacterial activity against extended-spectrum beta-lactamase producin Klebsiella pneumoniae 12-3 after 18 to 24 hrs by standard twofold serial dilution method.
Test [25] deals with Staphylococcus aureus. As to the kind of experiment: Antibacterial activity against methicillin-sensitive Staphylococcus aureus 12-2 after 18 to 24 hrs by standard twofold serial dilution method.
The subject of test [26] is Escherichia coli. As to the kind of experiment: Antibacterial activity against extended-spectrum beta-lactamase producing Escherichia coli 12-3 after 18 to 24 hrs by standard twofold serial dilution method.
The test system of test [27] is Escherichia coli. As to the kind of experiment: Antibacterial activity against extended-spectrum beta-lactamase producing Escherichia coli 12-15 after 18 to 24 hrs by standard twofold serial dilution method.
Test [28] deals with Pseudomonas aeruginosa. As to the kind of experiment: Antibacterial activity against Pseudomonas aeruginosa 12-12 after 18 to 24 hrs by standard twofold serial dilution method.
Test [29] relates to Escherichia coli. As to the kind of experiment: Antibacterial activity against extended-spectrum beta-lactamase producing Escherichia coli 12-14 after 18 to 24 hrs by standard twofold serial dilution method.
Test [30] has as its system Pseudomonas aeruginosa. As to the kind of experiment: Antibacterial activity against Pseudomonas aeruginosa 12-14 after 18 to 24 hrs by standard twofold serial dilution method.
For test [31], the system named is Streptococcus pneumoniae. As to the kind of experiment: Antibacterial activity against Streptococcus pneumoniae 12-18 after 18 to 24 hrs by standard twofold serial dilution method.
The test system of test [32] is Klebsiella pneumoniae. As to the kind of experiment: Antibacterial activity against extended-spectrum beta-lactamase producin Klebsiella pneumoniae 12-7 after 18 to 24 hrs by standard twofold serial dilution method.

The text below walks through data of ChEMBL document CHEMBL3352227, “Synthesis, antimycobacterial and antibacterial evaluation of l-[(1R, 2S)-2-fluorocyclopropyl]fluoroquinolone derivatives containing an oxime functional moiety” (Eur J Med Chem, 2014).

Each structure is given as a SMILES string. ≈ marks a conversion by molar mass, not a printed value.

For `NNC(=O)c1ccncc1` [ISONIAZID], it took 0.05 µg/mL (≈ 0.365 µM) to inhibit growth in test [1] (MIC).
As for `C[C@H]1COc2c(N3CCN(C)CC3)c(F)cc3c(=O)c(C(=O)O)cn1c23.C[C@H]1COc2c(N3CCN(C)CC3)c(F)cc3c(=O)c(C(=O)O)cn1c23.O` [LEVOFLOXACIN], the MIC was less than 0.008 µg/mL against Klebsiella pneumoniae [2]; less than 0.008 µg/mL against Escherichia coli [3]; 16 µg/mL in the test with Escherichia coli [4]; 0.125 µg/mL in test [5]; 32 µg/mL in the test with Staphylococcus aureus [6]; less than 0.008 µg/mL against Klebsiella pneumoniae [7]. The MIC in test [8] is 0.125 µg/mL; against Staphylococcus aureus [9] it was 0.125 µg/mL; in the test with Staphylococcus aureus [10] it was 0.125 µg/mL; against Streptococcus pneumoniae [11], 0.125 µg/mL; in test [12] it was 4 µg/mL; against Klebsiella pneumoniae [13] it was 0.06 µg/mL. The MIC is 32 µg/mL in the test with Staphylococcus aureus [14]; 4 µg/mL in test [15]; 0.125 µg/mL in the test with Staphylococcus aureus [16]; 32 µg/mL in test [17]; 0.25 µg/mL in the test on Escherichia coli [18]; less than 0.008 µg/mL against Staphylococcus aureus [19]. The MIC in test [1] came to 0.25 µg/mL; in the test on Klebsiella pneumoniae [20] it was 16 µg/mL; in the test with Staphylococcus aureus [21], 32 µg/mL; in test [22] it was 0.5 µg/mL; in the test on Klebsiella pneumoniae [23] it was 8 µg/mL; against Klebsiella pneumoniae [24], 16 µg/mL. In addition, the MIC was 0.125 µg/mL in the test on Staphylococcus aureus [25]; 32 µg/mL in the test with Escherichia coli [26]; 32 µg/mL in the test with Escherichia coli [27]; 0.5 µg/mL against Pseudomonas aeruginosa [28]; 16 µg/mL against Escherichia coli [29]; 16 µg/mL against Pseudomonas aeruginosa [30].
Regarding `COc1c(N2C[C@@H]3CCCN[C@@H]3C2)c(F)cc2c(=O)c(C(=O)O)cn(C3CC3)c12` [MOXIFLOXACIN], the MIC in the test with Klebsiella pneumoniae [2] is 0.06 µg/mL (≈ 0.149 µM); against Escherichia coli [3], less than 0.008 µg/mL; against Escherichia coli [4] it was 32 µg/mL (≈ 79.7 µM); in [5] it was 0.03 µg/mL (≈ 0.0747 µM); in the test with Staphylococcus aureus [6] it was 8 µg/mL (≈ 19.9 µM); with Klebsiella pneumoniae [7], 0.03 µg/mL (≈ 0.0747 µM). Further, the MIC in test [8] is 0.03 µg/mL (≈ 0.0747 µM); in the test with Staphylococcus aureus [9], 0.015 µg/mL (≈ 0.0374 µM); in the test with Streptococcus pneumoniae [31] it was 0.5 µg/mL (≈ 1.25 µM); with Staphylococcus aureus [10], less than 0.008 µg/mL; with Streptococcus pneumoniae [11] it was 0.06 µg/mL (≈ 0.149 µM); in test [12], 1 µg/mL (≈ 2.49 µM). Further, the MIC with Klebsiella pneumoniae [13] turned out to be 0.015 µg/mL (≈ 0.0374 µM); against Staphylococcus aureus [14] it was 8 µg/mL (≈ 19.9 µM); in test [15] it was 0.25 µg/mL (≈ 0.623 µM); in the test with Staphylococcus aureus [16], 0.015 µg/mL (≈ 0.0374 µM); in test [17], 16 µg/mL (≈ 39.9 µM); in the test on Escherichia coli [18], 0.5 µg/mL (≈ 1.25 µM). Besides, the MIC against Staphylococcus aureus [19] is less than 0.008 µg/mL; in the test on Klebsiella pneumoniae [20], 64 µg/mL (≈ 159 µM); in the test on Staphylococcus aureus [21] it was 8 µg/mL (≈ 19.9 µM); in test [22], 0.125 µg/mL (≈ 0.311 µM); in the test on Klebsiella pneumoniae [23], 0.5 µg/mL (≈ 1.25 µM); with Klebsiella pneumoniae [24] it was 32 µg/mL (≈ 79.7 µM). Besides, the MIC with Staphylococcus aureus [25] was less than 0.008 µg/mL; against Klebsiella pneumoniae [32], 0.5 µg/mL (≈ 1.25 µM); in the test with Escherichia coli [26] it was 64 µg/mL (≈ 159 µM); in the test with Escherichia coli [27] it was 32 µg/mL (≈ 79.7 µM); against Pseudomonas aeruginosa [28], 2 µg/mL (≈ 4.98 µM); in the test on Pseudomonas aeruginosa [30], 16 µg/mL (≈ 39.9 µM).
On to `CO[C@H]1/C=C/O[C@@]2(C)Oc3c(C)c(O)c4c(O)c(c(/C=N/N5CCN(C)CC5)c(O)c4c3C2=O)NC(=O)/C(C)=C\C=C\[C@H](C)[C@H](O)[C@@H](C)[C@@H](O)[C@@H](C)[C@H](OC(C)=O)[C@@H]1C` [RIFAMPIN], for which, in test [1], the MIC was 0.05 µg/mL (≈ 0.0608 µM).
